The text below walks through data of patent US20140187594A1, “DIPHENYL ETHER COMPOUNDS FOR THE TREATMENT OF LIVER, LUNG DISORDERS, DIABETIC COMPLICATIONS AND CARDIOVASCULAR DISEASES” (ORCHID CHEMICALS AND PHARMACEUTICALS LTD, priority 2010, published 2014).

Structures are written as SMILES. Entries after “also recorded” stand apart in the source; their conditions may differ.

The test system of one assay is NAFLD/NASH mice. The assay is described as follows: Supranutritional diet induced NAFLD/NASH (and DIO/NAFLD) models. The class given is in vivo, C57BL/6 mice. The protocol:
A rodent obese and NAFLD model was developed by feeding supranutritional diet, which simulates several features of human obesity and NAFLD. These features were treated as mentioned below. […] C57BL/6 male mice aged at 6-8 weeks, body weight ranges between 16-22 g were used for this study. Animals were divided into two groups. First group (n=8, where n refers to number of animals) was treated as a normal control fed with chow feed (Nutri Lab® Rodent, Tetragon Chemie Pvt. Ltd., Bangalore) and the second group (n=20) was treated with 60 Kcal % high fat diet (HFD) (Research Diets, New Brunswick, N.J., Cat# D12492 with blue dye) for 90 days. Animals were selected based on their body weight. The Animals fed with normal chow diet (n=8) served as normal control (Group I) and animals fed with HFD were divided into two groups as DIO/NAFLD control (Group II) (n=10), and Group III (n=9) treated with compound formula (A) at 100 mg/kg for 28 days. During this period, animal body weight and feed intake was recorded daily.
A rodent NAFLD/NASH model was developed by feeding supranutritional diet which simulates several features of human NAFLD/NASH. These features were treated as mentioned below. Fifty C57BL/6 male mice aged 6-8 weeks, and body weight ranges between 16-36 g were used for this study. Animals were divided into two groups, first group (n=10) treated as a normal control, was fed with chow feed (Nutri Lab® Rodent, Tetragon Chemie Pvt. Ltd., Bangalore) and the second group (n=40) fed with 60 Kcal % HFD (Research Diets, New Brunswick, N.J., Cat# D12492 with blue dye) and 40% high fructose liquid (HFL) for 60 days. After 45 days, two animals from disease induction and normal control groups were sacrificed; liver histopathology examination was carried out to confirm the induction of NAFLD/NASH. Animals fed with normal chow diet served as a normal control (Group I) and animals fed HFD and HFL were divided into three groups (n=6-8) as NAFLD/NASH control (Group II), Group III and Group IV were dosed with compound of formula (A) and Metformin at 100 and 350 mg/kg p.o respectively for 28 days. On 28th day, animals were kept 12 hours fasting and 29th day blood was collected, plasma separated and used for biochemical and compound concentration analysis. The animals were then sacrificed. Liver was collected and weighed. Liver tissues were used for compound concentration analysis, triglycerides estimation and histopathology examination. Gross pathology of liver was also observed. Experiment-3: Effect of Compound of formula (A) in NAFLD/NASH mice
The experiment-2 protocol was followed. There compound of formula (A) was compared with other antidiabetic compounds (Figures-8-13).
To develop NAFLD/NASH model, the same protocol was followed as mentioned in Experiment-2. At the end of induction period the animals were grouped as follows. Animals fed with normal chow diet (n=9) served as Normal control (Group 1) and animals fed HFD and HFL were divided into four groups (n=9-12) as NAFLD/NASH control (Group II), Groups III, IV, and V were treated with compound of formula (A) at 10, 30 and 100 mg/kg p.o. respectively for 28 days. After 28 days of treatment animals were kept for 12 hours fasting and blood was collected for biochemical estimations. Following blood collection, animals were sacrificed, liver was collected and weighed. Liver tissues were used for compound concentration analysis, TG estimation and histopathological examination. Gross pathology of liver was also observed. […]

The test system of a further assay is iNOS. As to the kind of experiment: iNOS inhibition in LPS challenged cells (anti iNOS antibody). The class given is cell-based. The following applies: 30 μM, one hour preincubation, LPS 1 μg/mL for 6 hours, FIG. 38. The source says: Based on the results obtained in the in-vitro studies, it can be concluded that Compounds A, B and C are moderately potent inhibitors of Aldose Reductase. […] At the end of the assay, cell lysates were probed with anti iNOS antibody. Compound of formula (A) inhibits the iNOS production in these cells (FIG. 38). […] Since iNOS is implicated in the pathology of diabetic complications, it is anticipated that Compound of formula (A) will have a protective effect in the development of neovascularization contributed by elevated iNOS. Inhibits LPS induced TNF-α and IL-6 Inhibition In Vivo: This study was undertaken when the mice are at 10-11 weeks in age. On Day 0 their body weights were measured and they were assigned to two groups of 6 mice each to get similar average group body weights. They were orally administered with either vehicle (deionized water, Group 1) or Compound of formula (A) (50 mg/kg; Group 2) daily between 9:30 and 10:30 AM for 10 days. The body weights were measured on day 3, 7 and 10 of the study before administration of vehicle or drug. On Day 10, the mice were administered LPS at 400 μg/kg, IP. After 1 hour they were orally administered with either vehicle or Compound of formula (A). After another 90 minutes, the mice were euthanized by carbon dioxide asphyxiation. Blood was collected by cardiac puncture and was processed to obtain serum. […]

In another assay the test system is STZ induced diabetic rat. As to the kind of experiment: Lenticular degeneration in STZ induced type I diabetic model. The class given is in vivo, Sprague Dawley rats. The following applies: 100 mg/kg for 2 months, FIG. 41. On the procedure:
The animal model was developed by injecting STZ to Sprague Dawley rats and kept for 10 weeks to develop diabetic complications. Initially animals were in hyperglycemic and chronically, developed several feature of diabetes and diabetic complications, which simulates human diabetes and complications. These features were treated as mentioned below. Forty male Sprague Dawley rats aged 6-8 weeks, body weight range between 150-190 g was used for this study. The animals were divided into two groups. First group (n=10) was treated as a normal control injected with normal saline and the second group (n=30) was treated with STZ (50 mg/kg, i.v.), (Sigma. USA). Body weight was recorded every week and blood glucose every month using glucometer (Contour TS, Bayer Healthcare Ltd.). Every week eyes were examined for cataractous changes. After 10 weeks of diabetes induction animals were grouped based on blood glucose levels and the severity of cataract. The first group served as normal control (n=10). The diabetic animals with cataract were divided into two groups, second group served as disease control (n=9) and third group was treated with compound of formula (A) (n=10) at 100 mg/kg dose for 2 months. At the last day of experiment animals were kept for 12 hours fasting, next day blood was collected, plasma separated and used for biochemical analysis. […] Data Analysis: The values are expressed as Mean±SE. […]

As for `COC(=O)[C@@H](N)Cc1ccc(Oc2ccc(CC3SC(=O)NC3=O)cc2)cc1` (stereo partly drawn) [Compound of formula (A), Methyl(2S)-2-amino-3-(4-{4-[(2,4-dioxo-1,3-thiazolidin-5-yl)methyl]phenoxy}phenyl)propanoate], the “liver histopathology (Hepatic steatosis)” value in the assay with NAFLD/NASH mice ((A) up to 100 mg/kg, disodium salt of (C) 30 mg/kg p.o., 28 days, FIGS. 6, 7, 12, 13, 19, 20, 21, 24, 25, 30, 31 & 32) is given as “reduction; also recorded: improvement in liver histopathology”. For the same compound, in the assay with NAFLD/NASH mice (vs untreated disease control, FIG. 17), the “plasma AST” value is “reduction”. For the same compound, the body weight result in the assay with NAFLD/NASH mice (vs untreated disease control, FIGS. 1, 2, 8, 16 & 23) is on record as “reduction in body weight”. Moreover, the “glucose (fasted)” value in the assay on NAFLD/NASH mice (vs untreated disease control, FIGS. 5 & 9) is “reduction”. Also, in the assay on NAFLD/NASH mice (vs untreated disease control, FIGS. 10 & 18), the “plasma ALT” value is “reduction”. Besides, in the assay with iNOS, the iNOS production result is reported as “potent inhibitor of iNOS with activity superior to Rosiglitazone at equal concentrations”. Moreover, the lenticular degeneration result with STZ induced diabetic rat is “significant improvement in lenticular degeneration”.
